Test results as given in patent US6936585B2, “Corticotropin releasing factor 2 receptor agonists” (priority 2002, dated 2005).
Like-named read-outs stand apart in the source and are kept apart here. Ends that are not written are not given here. Peptide text beside a SMILES is read from it.

Experiments:
CRF2R = target: T1, CRF2R (Homo sapiens, UniProt Q13324); assay: CRF2R agonist activation (EC50 / Emax), called comparative CRF binding; type: cell-based; conditions: for Emax: read-out: CRF2R Emax
T1 sequence (Q13324 1-411): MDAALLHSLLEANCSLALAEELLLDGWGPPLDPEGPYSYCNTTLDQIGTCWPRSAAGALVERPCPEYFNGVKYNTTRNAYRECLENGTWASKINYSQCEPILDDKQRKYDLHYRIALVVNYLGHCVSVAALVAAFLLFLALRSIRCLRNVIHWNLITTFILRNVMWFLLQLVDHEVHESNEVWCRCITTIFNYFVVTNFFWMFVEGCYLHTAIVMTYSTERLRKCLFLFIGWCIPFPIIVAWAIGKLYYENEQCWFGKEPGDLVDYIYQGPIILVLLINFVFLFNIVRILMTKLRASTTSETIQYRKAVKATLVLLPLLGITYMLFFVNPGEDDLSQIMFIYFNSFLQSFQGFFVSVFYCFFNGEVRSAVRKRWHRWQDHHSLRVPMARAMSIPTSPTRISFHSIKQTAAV
In short: (§1)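 Read-out is Gαs-driven cAMP induction, quantified directly in lysates or through CRE-reporter gene expression, after treating CRF1R- or CRF2R-expressing cells with peptide. Vehicle-treated cells serve as the comparison.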

CRF1R = target: T2, CRF1R (Homo sapiens, UniProt P34998); assay: CRF1R agonist activation (EC50 / Emax), called comparative CRF binding; type: cell-based; conditions: for Emax: read-out: CRF1R Emax
T2 sequence (P34998 24-415): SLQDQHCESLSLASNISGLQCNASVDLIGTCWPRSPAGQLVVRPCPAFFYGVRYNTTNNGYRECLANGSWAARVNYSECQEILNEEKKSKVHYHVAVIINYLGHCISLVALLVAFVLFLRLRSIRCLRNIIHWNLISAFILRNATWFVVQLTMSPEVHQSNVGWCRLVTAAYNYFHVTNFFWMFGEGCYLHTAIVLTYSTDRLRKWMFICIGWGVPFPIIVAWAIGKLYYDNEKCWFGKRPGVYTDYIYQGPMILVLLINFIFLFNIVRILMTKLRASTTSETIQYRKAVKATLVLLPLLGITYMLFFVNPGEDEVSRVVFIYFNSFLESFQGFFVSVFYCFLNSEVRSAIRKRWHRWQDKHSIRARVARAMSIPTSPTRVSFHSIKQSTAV
In short: as §1

Row | Molecule | Emax (CRF2R) [%] | Emax (CRF1R) [%] | EC50 (CRF2R) [nM] | EC50 (CRF1R; CRF1R EC50) [nM] | EC50 (CRF2R; read-out: CRF2R EC50) [nM] | EC50 (CRF1R; read-out: CRF1R EC50) [nM]
1 | CC[C@H](C)[C@H](N)C(=O)N[C@H](C(=O)N[C@@H](CC(C)C)C(=O)N[C@@H](CO)C(=O)N[C@@H](CC(C)C)C(=O)N[C@@H](CC(=O)O)C(=O)N[C@H](C(=O)N1CCC[C@H]1C(=O)NCC(=O)N1CCC[C@H]1C(=O)N[C@@H](CC(C)C)C(=O)N[C@@H](CC(C)C)C(=O)N[C@@H](CCC(N)=O)C(=O)N[C@H](C(=O)N[C@@H](CC(C)C)C(=O)N[C@@H](CC(C)C)C(=O)N[C@@H](CCC(=O)O)C(=O)N[C@@H](CCC(N)=O)C(=O)N[C@H](C(=O)N[C@@H](CCCCN)C(=O)N[C@@H](CCC(N)=O)C(=O)N[C@@H](CCC(=O)O)C(=O)N[C@@H](C)C(=O)N[C@@H](C)C(=O)N[C@@H](CCCNC(=N)N)C(=O)N[C@@H](CCC(=O)O)C(=O)N[C@@H](CCC(N)=O)C(=O)N[C@@H](C)C(=O)N[C@H](C(=O)N[C@H](C(=O)N[C@@H](CC(N)=O)C(=O)N[C@@H](C)C(=O)N[C@@H](CCCNC(=N)N)C(=O)N[C@H](C(=O)N[C@@H](CC(C)C)C(=O)N[C@@H](C)C(=O)N[C@@H](CCCNC(=N)N)C(=O)N[C@H](C(N)=O)C(C)C)[C@@H](C)CC)[C@@H](C)O)[C@@H](C)O)[C@@H](C)O)[C@@H](C)CC)C(C)C)C(C)C [compound 5] (H-IVLSLDVPGPLLQILLEQTKQEAAREQATTNARILARV-NH2) | 12 | 9 |  |  |  | 
2 | CC[C@H](C)[C@H](N)C(=O)N[C@H](C(=O)N[C@@H](CC(C)C)C(=O)N[C@@H](CO)C(=O)N[C@@H](CC(C)C)C(=O)N[C@@H](CC(=O)O)C(=O)N[C@H](C(=O)N1CCC[C@H]1C(=O)N[C@H](C(=O)NCC(=O)N[C@@H](CC(C)C)C(=O)N[C@@H](CC(C)C)C(=O)N[C@@H](CCC(N)=O)C(=O)N[C@H](C(=O)N[C@@H](CC(C)C)C(=O)N[C@@H](CC(C)C)C(=O)N[C@@H](CCC(=O)O)C(=O)N[C@@H](CCC(N)=O)C(=O)N[C@@H](CCCNC(=N)N)C(=O)N[C@@H](C)C(=O)N[C@@H](CCCNC(=N)N)C(=O)N[C@@H](C)C(=O)N[C@@H](C)C(=O)N[C@@H](CCCNC(=N)N)C(=O)N[C@@H](CCC(=O)O)C(=O)N[C@@H](CCC(N)=O)C(=O)N[C@@H](C)C(=O)N[C@H](C(=O)N[C@H](C(=O)N[C@@H](CC(N)=O)C(=O)N[C@@H](C)C(=O)N[C@@H](CCCNC(=N)N)C(=O)N[C@H](C(=O)N[C@@H](CC(C)C)C(=O)N[C@@H](C)C(=O)N[C@@H](CCCNC(=N)N)C(=O)N[C@H](C(N)=O)C(C)C)[C@@H](C)CC)[C@@H](C)O)[C@@H](C)O)[C@@H](C)CC)[C@@H](C)CC)C(C)C)C(C)C [compound 137] (H-IVLSLDVPIGLLQILLEQRARAAREQATTNARILARV-NH2; N-terminus assumed) | 100 | 4 |  |  |  | 
3 | NDDPPISIDLPLHLLRNMIEMARIENEREQAGLNAKYLAEV-NH2 [compound 259] | 65 | 83.6 |  |  |  | 
4 | SQEPPISLDLPLGLLREVLEMTKADQLAQQAHSNRKLLDIA-NH2 [compound 90] | 12.2 | 4 |  |  |  | 
5 | CC[C@H](C)[C@H](N)C(=O)N[C@H](C(=O)N[C@@H](CC(C)C)C(=O)N[C@@H](CO)C(=O)N[C@@H](CC(C)C)C(=O)N[C@@H](CC(=O)O)C(=O)N[C@H](C(=O)N1CCC[C@H]1C(=O)N[C@H](C(=O)NCC(=O)N[C@@H](CC(C)C)C(=O)N[C@@H](CC(C)C)C(=O)N[C@@H](CCC(N)=O)C(=O)N[C@H](C(=O)N[C@@H](CC(C)C)C(=O)N[C@H](C(=O)N[C@@H](CCC(=O)O)C(=O)N[C@H](C(=O)N[C@@H](CCC(=O)O)C(=O)N[C@@H](CCCCN)C(=O)N[C@@H](CCC(N)=O)C(=O)N[C@@H](CCC(=O)O)C(=O)N[C@@H](CCCCN)C(=O)N[C@@H](CCC(=O)O)C(=O)N[C@@H](CCCCN)C(=O)N[C@@H](CCC(N)=O)C(=O)N[C@@H](CCC(N)=O)C(=O)N[C@@H](C)C(=O)N[C@@H](C)C(=O)N[C@@H](CC(N)=O)C(=O)N[C@@H](CC(N)=O)C(=O)N[C@@H](C)C(=O)N[C@@H](CCCNC(=N)N)C(=O)N[C@H](C(=O)N[C@@H](CC(C)C)C(=O)N[C@@H](C)C(=O)N[C@@H](CCCNC(=N)N)C(=O)N[C@H](C(N)=O)C(C)C)[C@@H](C)CC)[C@@H](C)CC)[C@@H](C)CC)[C@@H](C)CC)[C@@H](C)CC)C(C)C)C(C)C [compound 166] (H-IVLSLDVPIGLLQILIEIEKQEKEKQQAANNARILARV-NH2; N-terminus assumed) | 99 | 95 | 3.7 | 437 |  | 
6 | CC[C@H](C)[C@H](NC(=O)[C@H](CCCNC(=N)N)NC(=O)[C@H](C)NC(=O)[C@H](CC(N)=O)NC(=O)[C@H](CCC(N)=O)NC(=O)[C@H](CCC(=O)O)NC(=O)[C@H](C)NC(=O)[C@H](CCCNC(=N)N)NC(=O)[C@H](CCC(=O)O)NC(=O)[C@H](CCCNC(=N)N)NC(=O)[C@H](CCC(N)=O)NC(=O)[C@H](CO)NC(=O)[C@H](CCC(N)=O)NC(=O)[C@@H](NC(=O)[C@H](CCCCN)NC(=O)[C@H](CCC(=O)O)NC(=O)[C@H](CC(C)C)NC(=O)[C@H](CCC(=O)O)NC(=O)[C@H](CC(C)C)NC(=O)[C@H](CC(C)C)NC(=O)[C@@H](NC(=O)[C@H](CCCNC(=N)N)NC(=O)[C@H](CC(C)C)NC(=O)[C@H](CC(C)C)NC(=O)[C@H](Cc1ccc(O)cc1)NC(=O)[C@H](CC(C)C)NC(=O)[C@@H]1CCCN1C(=O)[C@@H](NC(=O)[C@H](CC(=O)O)NC(=O)[C@@H](NC(=O)[C@H](CO)NC(=O)[C@H](CC(C)C)NC(=O)[C@H](CO)NC(=O)[C@@H]1CCCN1C(=O)[C@H](CC(N)=O)NC(=O)[C@@H](N)CC(=O)O)[C@@H](C)CC)C(C)C)[C@@H](C)O)[C@@H](C)O)C(=O)N[C@@H](Cc1ccccc1)C(=O)N[C@@H](C)C(=O)N[C@@H](CCCNC(=N)N)C(=O)N[C@H](C(N)=O)C(C)C [compound 387] (H-DNPSLSIDVPLYLLRTLLELEKTQSQRERAEQNARIFARV-NH2; N-terminus assumed) | 100 | 50.1 |  |  | 17.8 | ≥ 1000
7 | SQEPPISLDLPFYLLREVLEMTKADQLAQQAHSNRKLLDIA-NH2 [compound 96] | 12.5 | 16.3 |  |  |  | 
8 | SQEPPISLDLTFGLLREVLEMTKADQLAQQAHSNRKLLDIA-NH2 [compound 88] | 12.6 | 11.2 |  |  |  | 
9 | CC[C@H](C)[C@H](N)C(=O)N[C@H](C(=O)N[C@@H](CC(C)C)C(=O)N[C@@H](CO)C(=O)N[C@@H](CC(C)C)C(=O)N[C@@H](CC(=O)O)C(=O)N[C@H](C(=O)N[C@@H](CO)C(=O)N[C@H](C(=O)NCC(=O)N[C@@H](CC(C)C)C(=O)N[C@@H](CC(C)C)C(=O)N[C@@H](CCC(N)=O)C(=O)N[C@H](C(=O)N[C@@H](CC(C)C)C(=O)N[C@@H](CC(C)C)C(=O)N[C@@H](CCC(=O)O)C(=O)N[C@@H](CCC(N)=O)C(=O)N[C@@H](C)C(=O)N[C@@H](CCCNC(=N)N)C(=O)N[C@@H](C)C(=O)N[C@@H](CCCNC(=N)N)C(=O)N[C@@H](C)C(=O)N[C@@H](C)C(=O)N[C@@H](CCCNC(=N)N)C(=O)N[C@@H](CCC(=O)O)C(=O)N[C@@H](CCC(N)=O)C(=O)N[C@@H](C)C(=O)N[C@H](C(=O)N[C@H](C(=O)N[C@@H](CC(N)=O)C(=O)N[C@@H](C)C(=O)N[C@@H](CCCNC(=N)N)C(=O)N[C@H](C(=O)N[C@@H](CC(C)C)C(=O)N[C@@H](C)C(=O)N[C@@H](CCCNC(=N)N)C(=O)N[C@H](C(N)=O)C(C)C)[C@@H](C)CC)[C@@H](C)O)[C@@H](C)O)[C@@H](C)CC)[C@@H](C)CC)C(C)C)C(C)C [compound 370] (H-IVLSLDVSIGLLQILLEQARARAAREQATTNARILARV-NH2; N-terminus assumed) | 75 | 33 |  |  | 51 | ≥ 1000
10 | SQEPPISLDLPTGLLREVLEMTKADQLAQQAHSNRKLLDIA-NH2 [compound 98] | 5.5 | 4 |  |  |  | 
11 | CC[C@H](C)[C@H](N)C(=O)N[C@H](C(=O)N[C@@H](CC(C)C)C(=O)N[C@@H](CO)C(=O)N[C@@H](CC(C)C)C(=O)N[C@@H](CC(=O)O)C(=O)N[C@H](C(=O)N1CCC[C@H]1C(=O)N[C@H](C(=O)NCC(=O)N[C@@H](CC(C)C)C(=O)N[C@@H](CC(C)C)C(=O)N[C@@H](CCC(N)=O)C(=O)N[C@@H](CCC(=O)O)C(=O)N[C@H](C(=O)N[C@@H](CC(C)C)C(=O)N[C@@H](CCC(=O)O)C(=O)N[C@@H](CCSC)C(=O)N[C@@H](C)C(=O)N[C@@H](CCCNC(=N)N)C(=O)N[C@@H](C)C(=O)N[C@@H](CCC(=O)O)C(=O)N[C@@H](CCC(N)=O)C(=O)N[C@@H](CC(C)C)C(=O)N[C@@H](C)C(=O)N[C@@H](CCC(N)=O)C(=O)N[C@@H](CCC(N)=O)C(=O)N[C@@H](C)C(=O)N[C@@H](Cc1c[nH]cn1)C(=O)N[C@@H](CO)C(=O)N[C@@H](CC(N)=O)C(=O)N[C@@H](CCCNC(=N)N)C(=O)N[C@@H](CCCCN)C(=O)N[C@@H](CC(C)C)C(=O)N[C@@H](CCSC)C(=O)N[C@@H](CCC(=O)O)C(=O)N[C@H](C(=O)N[C@H](C(N)=O)[C@@H](C)CC)[C@@H](C)CC)C(C)C)[C@@H](C)CC)C(C)C)C(C)C [compound 165] (H-IVLSLDVPIGLLQEVLEMARAEQLAQQAHSNRKLMEII-NH2) | 75 | 19 |  |  |  | 
12 | SQEPPISLDLTIGLLREVLEMTKADQLAQQAHSNRKLLDIA-NH2 [compound 86] | 8.1 | 4.6 |  |  |  | 
